# According to patent US8236778B2, “Synergistic 5′-methylthioadenosine combinations” (Proyecto de Biomedicina Cima, S.L., priority 2008, dated 2012):
# Experiments:
# [1] = system: Chronic-Relapsing EAE (RR-EAE); settings: model of Multiple Sclerosis; cited from earlier work
# [2] = wide range of doses; cited from earlier work
# [3] = system: acute Experimental Autoimmune Encephalomyelitis (EAE); settings: model of Multiple Sclerosis; cited from earlier work
# acute EAE model = assay: EAE disease severity score in MS animal model (acute EAE model, rMOG35-55 immunization); assay type: in vivo; settings: female C57/bl6 mice, daily i.p. treatment starting after immunization, followed to day 31; (27.84 mg/kg), GA 0.1 mg/mouse/day; n=5 per group
# MS relapses = settings: current GA therapy; cited from earlier work
Molecule,effect on Chronic-Relapsing EAE [1],side effects [2],effect on acute EAE [3],course / severity of the disease (EAE) (acute EAE model),efficacy in preventing new relapses in MS (MS relapses)
"CSC[C@H]1O[C@@H](n2cnc3c(N)ncnc32)[C@H](O)[C@@H]1O [MTA, 5′-methylthioadenosine]",ameliorates,without side effects,capable of preventing,course of the disease with intermediate intensity,–
"L-glutamic acid polymer with L-alanine, L-lysine and L-tyrosine, acetate (salt) [GA, reference compound]",–,–,–,course of the disease with intermediate intensity,not more than 25%
